Laboratory results published in patent US20230000813A1, “COMPOUND FOR THE TREATMENT OF BOVINE OR SWINE RESPIRATORY DISEASE” (Intervet Inc., priority 2016, published 2023).
Converted amounts (≈) assume the structure as drawn. “And” between values parts separate entries of the source, which are not always exact repeats. Identical values can stand only once. Marks after values point to notes of the source that are not given here.

Legend:
[1] = test system: Acinetobacter baumanii AB 15919 (IV369-2012, dermatitis field isolate); assay: MIC, broth-microdilution (CLSI VET01-A4); type: cell-based; conditions: strain AB 15919
How it was run: (§1)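 Broth microdilution per CLSI VET01-A4 with doubling dilution series of compound. MIC taken as lowest concentration giving no visible turbidity by unaided eye, interpreted per CLSI VET01-S3.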

[2] = test system: Acinetobacter baumanii AB 16496 (ATCC 19606, reference strain); assay: MIC, broth-microdilution (CLSI VET01-A4); type: cell-based; conditions: strain AB 16496
How it was run: as §1

[3] = test system: Mannheimia haemolytica MH 12180 (KLI-02944, BRD field isolate); assay: MIC, broth-microdilution (CLSI VET01-A4); type: cell-based; conditions: strain MH 12180
How it was run: as §1

[4] = test system: Pasteurella multocida PM 14426 (0006-439, BRD field isolate, macrolide-resistant); assay: MIC, broth-microdilution (CLSI VET01-A4); type: cell-based; conditions: strain PM 14426, macrolide-resistant
How it was run: as §1

[5] = test system: Staphylococcus aureus SA 5816 (2139, mastitis field isolate); assay: MIC, broth-microdilution (CLSI VET01-A4); type: cell-based; conditions: strain SA 5816
How it was run: as §1

[6] = test system: Staphylococcus aureus SA 6114 (ATCC 29213, reference strain); assay: MIC, broth-microdilution (CLSI VET01-A4); type: cell-based; conditions: strain SA 6114
How it was run: as §1

[7] = test system: 20 isolates of Actinobacillus (A.) pleuropneumoniae; assay: MIC50/MIC90, broth-microdilution, European respiratory tract isolates; type: cell-based
How it was run: (§2)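 Isolates came from the respiratory tract of diseased swine and cattle in several European countries and were epidemiologically unrelated. MICs were determined by broth microdilution with doubling dilutions per CLSI VET01-A4, interpreted per VET01-S3. MIC is the lowest concentration with no visible turbidity.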

[8] = test system: 20 isolates of Bordetella (B.) bronchiseptica; assay: as above; type: cell-based
How it was run: as §2

[9] = test system: 40 isolates of Mannheimia (M.) haemolytica; assay: as above; type: cell-based
How it was run: as §2

[10] = test system: 40 isolates of Pasteurella (P.) multocida; assay: as above; type: cell-based
How it was run: as §2

M. haemolytica = assay: Mannheimia haemolytica cattle lung infection model, efficacy (Example 10); type: in vivo, cattle calves; conditions: for Food consumption, cumulated for all animals in the group: 3 calves; for Bacteriological Cure (x of n) / Survival (x of n): calves infected with M. haemolytica, SC, single
Experimental: Unless otherwise described the study was conducted as described in Clinical Example 8
Calves were infected via intratracheal instillation of appr. 300 mL of M. haemolytica PBS suspension containing approximately 4×10^9 CFU M. haemolytica in late log phase on Day 0.
One hour later three animals each were treated with 10 mg/kg of Compound 231(referred to as C. 231) (80 mg/mL in 10% Poloxamer 188), or 10 mg/kg or 5 mg/kg Compound 329 (referred to as C. 329) (150 mg/mL in 35% Cavitron).
The following clinical findings were recorded: The general behavior scores of the animals before (DO am) and after infection with M. haemolytica in the different treated and control groups are indicated in FIG. 8-1: 0=normal; 1=slightly depressive, 2=moderately depressive, 3=highly depressive, 4=recumbency.
The following pathomorphological findings after section on Day 2 were recorded: After measuring the body weight and the lung weight the Lung body mass ratio was calculated as shown in FIG. 8-2. A healthy animal has a lung body mass ration around 1.7 or lower. The area percentage of lung consolidations compared to the total lung tissue and the lung score determined that is a combined score of such percentage of lung consoldiations and the grade. For the “grade” the degree of lung consolidation score was graded from 0 to 3 for each of eight lung lobes: 0 no visible changes, 1 low graded colour changes or induration, 2 medium graded induration, 3 high graded induration, hepatisation, necrosis.
The geometrical means (CFU/g tissue) of bacteriological re-isolations of Mannheimia haemolytica from lung tissue are illustrated in FIG. 8-4.

[11] = Plasma and tissue concentrations in infected calves (Example 10); type: in vivo, cattle calves; conditions: individual animals and mean; for Concentration, Plasma 0 h: predose
[12] = SC single 5 mg/kg (35% Cavitron), listed as C. 239, 5 mg/kg
[13] = SC single 10 mg/kg (C 231 in 10% Poloxamer 188; C 329 in 35% Cavitron), 10 mg/kg

Structure (SMILES): CC(C)(N)C(NC(=O)c1ccc(C#Cc2ccc(CNC3CC3)cc2)cc1)C(=O)NO (centres unmarked) [C. 329]
- MIC [1]: 16 µg/mL (≈ 38 µM)
- MIC [2]: >16 µg/mL
- MIC [3]: 0.5 µg/mL (≈ 1.19 µM)
- MIC [4]: ≤0.016 µg/mL
- MIC [5]: >16 µg/mL
- MIC [6]: >16 µg/mL
- MIC50 [7]: 0.5 µg/mL (≈ 1.19 µM)
- MIC90 [7]: 0.5 µg/mL (≈ 1.19 µM)
- MIC50 [8]: 2 µg/mL (≈ 4.76 µM)
- MIC90 [8]: 4 µg/mL (≈ 9.51 µM)
- MIC50 [9]: 0.5 µg/mL (≈ 1.19 µM)
- MIC90 [9]: 1 µg/mL (≈ 2.38 µM)
- MIC50 [10]: 0.032 µg/mL (≈ 0.0761 µM)
- MIC90 [10]: 0.032 µg/mL (≈ 0.0761 µM)
- Food consumption, cumulated for all animals in the group (M. haemolytica; D 0 am, after infection and treatment, 5 mg/kg): 1213 g
- Food consumption, cumulated for all animals in the group (M. haemolytica; D 0 am, after infection and treatment, 10 mg/kg): 1800** g
- Food consumption, cumulated for all animals in the group (M. haemolytica; D 0 pm, 5 mg/kg): 4800 g
- Food consumption, cumulated for all animals in the group (M. haemolytica; D 0 pm, 10 mg/kg): 4800 g
- Food consumption, cumulated for all animals in the group (M. haemolytica; D +1 am, 5 mg/kg): 4800 g
- Food consumption, cumulated for all animals in the group (M. haemolytica; D +1 am, 10 mg/kg): 4800 g
- Food consumption, cumulated for all animals in the group (M. haemolytica; D +1 pm, 5 mg/kg): 4800 g
- Food consumption, cumulated for all animals in the group (M. haemolytica; D +1 pm, 10 mg/kg): 4800 g
- Food consumption, cumulated for all animals in the group (M. haemolytica; D −1 (before infection), 5 mg/kg): 4800 g
- Food consumption, cumulated for all animals in the group (M. haemolytica; D −1 (before infection), 10 mg/kg): 4800 g
- Bacteriological Cure (x of n) (M. haemolytica; 5 mg/kg BW): 1/3
- Survival (x of n) (M. haemolytica; 5 mg/kg BW): 3/3
- Bacteriological Cure (x of n) (M. haemolytica; 10 mg/kg BW): 3/3
- Survival (x of n) (M. haemolytica; 10 mg/kg BW): 3/3
- efficacy against an artificial lung infection with M. haemolytica in the calf (M. haemolytica; tested dosages 10 mg/kg for C 231 and 10 mg/kg and 5 mg/kg for C 329, conclusion in words): effective
- Concentration, Plasma 0.5 h [11, 12]: 1140 ng/mL and 830 ng/mL and 945 ng/mL
- Concentration, Plasma 2 h [11, 12]: 327 ng/mL and 326 ng/mL and 221 ng/mL
- Concentration, Plasma 4 h [11, 12]: 146 ng/mL and 210 ng/mL and 130 ng/mL
- Concentration, Plasma 6 h [11, 12]: 110 ng/mL and 156 ng/mL and 78.7 ng/mL
- Concentration, Plasma 24 h [11, 12]: 32.2 ng/mL and 35.1 ng/mL and 22.8 ng/mL
- Concentration, Plasma 48 h [11, 12]: 16.1 ng/mL and 18.2 ng/mL and 12.8 ng/mL
- Concentration, Tissue (48 h) ELF [11, 12]: 91.8 ng/mL and 214 ng/mL and 324 ng/mL
- Concentration, Tissue (48 h) Kidney [11, 12]: 8890 ng/mL and 3990 ng/mL and 4940 ng/mL
- Concentration, Tissue (48 h) Liver [11, 12]: 2060 ng/mL and 1550 ng/mL and 1740 ng/mL
- Concentration, Tissue (48 h) Lung [11, 12]: 1560 ng/mL and 1320 ng/mL and 1360 ng/mL
- Concentration, Tissue (48 h) Muscle [11, 12]: 53.3 ng/mL and 45.7 ng/mL and 54.4 ng/mL
- Concentration, Plasma 0.5 h [11, 13]: 1160 ng/mL and 1610 ng/mL and 1400 ng/mL
- Concentration, Plasma 2 h [11, 13]: 476 ng/mL and 439 ng/mL and 550 ng/mL
- Concentration, Plasma 4 h [11, 13]: 310 ng/mL and 267 ng/mL and 282 ng/mL
- Concentration, Plasma 6 h [11, 13]: 210 ng/mL and 172 ng/mL and 174 ng/mL
- Concentration, Plasma 24 h [11, 13]: 69.1 ng/mL and 42.9 ng/mL and 57.5 ng/mL
- Concentration, Plasma 48 h [11, 13]: 49.3 ng/mL and 38.5 ng/mL and 32.4 ng/mL
- Concentration, Tissue (48 h) ELF [11, 13]: 1090 ng/mL and 372 ng/mL and 250 ng/mL
- Concentration, Tissue (48 h) Kidney [11, 13]: 6570 ng/mL and 20800 ng/mL and 4620 ng/mL
- Concentration, Tissue (48 h) Liver [11, 13]: 3930 ng/mL and 3650 ng/mL and 2730 ng/mL
- Concentration, Tissue (48 h) Lung [11, 13]: 2780 ng/mL and 3370 ng/mL and 2790 ng/mL
- Concentration, Tissue (48 h) Muscle [11, 13]: 75.3 ng/mL and 68.5 ng/mL and 85.9 ng/mL
- Concentration, Plasma 0 h ([11]; SC single 5 mg/kg (35% Cavitron)): BLQ
- Concentration, Plasma 0 h ([11]; SC single 10 mg/kg (C 231 in 10% Poloxamer 188; C 329 in 35% Cavitron)): BLQ
